Like-named read-outs stand apart in the source and are kept apart here.
Key:
glucocorticoid receptor = glucocorticoid receptor (Homo sapiens, UniProt P04150); settings: concentration ≦10 μM, A549 cells
Description: A549 cells, which contain endogenous glucocorticoid receptor, were stably transfected with an AP-1 DNA binding site attached to the luciferase gene. […] Cells are plated the day before the assay at approximately 40000 cells/well. […] Activity is measured by analysis in a luminometer as compared to control experiments treated with buffer or dexamethasome.

AR [1] = molecular target: T1, AR (Rattus norvegicus, UniProt P15207)
T1 sequence (P15207 1-902): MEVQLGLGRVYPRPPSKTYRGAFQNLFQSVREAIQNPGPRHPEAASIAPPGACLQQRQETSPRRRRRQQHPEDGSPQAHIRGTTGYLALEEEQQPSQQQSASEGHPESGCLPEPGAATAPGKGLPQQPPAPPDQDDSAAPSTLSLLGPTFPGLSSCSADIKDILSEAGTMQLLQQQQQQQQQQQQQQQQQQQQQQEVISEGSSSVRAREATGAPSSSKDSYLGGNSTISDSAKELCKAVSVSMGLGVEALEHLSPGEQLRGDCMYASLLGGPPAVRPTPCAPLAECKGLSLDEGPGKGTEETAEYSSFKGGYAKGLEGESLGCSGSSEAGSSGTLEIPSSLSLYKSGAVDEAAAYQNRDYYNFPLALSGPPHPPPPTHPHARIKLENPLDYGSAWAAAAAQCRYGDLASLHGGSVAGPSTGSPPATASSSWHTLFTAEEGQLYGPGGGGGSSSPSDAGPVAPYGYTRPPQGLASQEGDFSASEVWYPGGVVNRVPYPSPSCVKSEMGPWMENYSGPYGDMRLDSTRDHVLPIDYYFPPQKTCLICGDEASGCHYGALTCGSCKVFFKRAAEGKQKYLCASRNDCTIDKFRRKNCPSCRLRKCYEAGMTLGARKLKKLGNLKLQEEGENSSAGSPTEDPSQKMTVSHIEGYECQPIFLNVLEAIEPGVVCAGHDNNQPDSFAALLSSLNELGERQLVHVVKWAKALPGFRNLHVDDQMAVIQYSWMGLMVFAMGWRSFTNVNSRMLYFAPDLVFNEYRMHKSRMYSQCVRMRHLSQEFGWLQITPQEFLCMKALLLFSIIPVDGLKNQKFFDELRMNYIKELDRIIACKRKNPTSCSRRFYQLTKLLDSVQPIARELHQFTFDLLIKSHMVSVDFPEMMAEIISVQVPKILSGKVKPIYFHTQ
Text: The activity of compounds of the present invention as AR agonists was investigated in an immature male rat model, a recognized test of anabolic effects in muscle and sustaining effects in sex organs for a given compound, as described in L. G. Hershberger et al., Proc. Soc. […] Yak. Ken. Nem.
The basis of this assay lies in the well-defined action of androgenic agents on the maintenance and growth of muscle tissues and sexual accessory organs in animals and man. […] J. Anat. […] I. Quantitative data” Boll.-Soc. Ital. Biol. Sper. […] II. Electron-microscopic observations” Boll.-Soc. Ital. Biol. Sper. […] As described above, the effects of androgens on maintenance of male sexual accessory organs, such as the prostate and seminal vesicles, is well described. Castration results in rapid involution and atrophy of the prostate and seminal vesicles. This effect can be reversed by exogenous addition of androgens. Since both the levator ani muscle and the male sex organs are the tissues most responsive to the effects of androgenic agents, this model is used to determine the androgen dependent reversal of atrophy in the levator ani muscle and the sex accessory organs in immature castrated rats. Sexually mature rats (200-250 g, 6-8 weeks-old, Sprague-Dawley, Harlan) were acquired castrated from the vendor (Taconic). […]

AR [2] = molecular target: T1, AR; remark: listed apart in the source

Sequence of glucocorticoid receptor (P04150 whole entry): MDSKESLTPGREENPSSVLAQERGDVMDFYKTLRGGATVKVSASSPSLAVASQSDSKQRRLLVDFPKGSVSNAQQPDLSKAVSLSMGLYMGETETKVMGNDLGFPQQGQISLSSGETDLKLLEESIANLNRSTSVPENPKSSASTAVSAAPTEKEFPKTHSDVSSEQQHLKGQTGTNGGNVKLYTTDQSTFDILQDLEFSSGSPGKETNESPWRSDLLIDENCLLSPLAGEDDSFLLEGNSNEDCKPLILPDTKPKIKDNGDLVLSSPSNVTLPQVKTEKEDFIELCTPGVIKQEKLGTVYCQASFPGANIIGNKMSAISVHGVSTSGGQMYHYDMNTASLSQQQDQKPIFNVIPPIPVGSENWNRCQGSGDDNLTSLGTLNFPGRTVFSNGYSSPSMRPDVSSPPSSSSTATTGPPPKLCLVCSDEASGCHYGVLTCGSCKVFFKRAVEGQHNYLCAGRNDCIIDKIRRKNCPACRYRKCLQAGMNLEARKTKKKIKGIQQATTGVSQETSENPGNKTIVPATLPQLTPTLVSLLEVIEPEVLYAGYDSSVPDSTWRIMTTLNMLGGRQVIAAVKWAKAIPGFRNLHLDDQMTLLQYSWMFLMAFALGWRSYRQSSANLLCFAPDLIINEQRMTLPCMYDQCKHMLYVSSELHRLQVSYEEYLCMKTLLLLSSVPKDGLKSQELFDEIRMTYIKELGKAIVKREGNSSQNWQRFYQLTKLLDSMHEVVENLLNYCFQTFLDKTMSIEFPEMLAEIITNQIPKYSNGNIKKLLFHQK

| SMILES | suppression of activity (% inhibition of the reporter system vs buffer control with 10 ng/ml PMA) (glucocorticoid receptor) [%] | EC50 (increase in organ weight) (AR [1]; castrated rats) [mg] | potency relative to free T (AR [1]; organ weight increase) | ED80 (AR [2]; immature castrated rat model) [mg] | EC50 (increase in organ weight) (AR [2]; immature castrated rats) [mg] | potency relative to free T (AR [2]; organ weight increase, immature castrated rats) |
| --- | --- | --- | --- | --- | --- | --- |
| C[C@@H]1C[C@H]2[C@@H]3CCC4=CC(=O)C=C[C@]4(C)[C@@]3(F)[C@@H](O)C[C@]2(C)[C@@]1(O)C(=O)CO [dexamethasone] | ~65 | – | – | – | – | – |
| CCC(=O)O[C@H]1CC[C@H]2[C@@H]3CCC4=CC(=O)CC[C@]4(C)[C@H]3CC[C@]12C [testosterone propionate, Testosterone Propionate] | – | ~0.03 | 10-30 fold | 0.1 | ~0.03 | 10-30 fold |

— patent US7655689B2, “Fused heterocyclic succinimide compounds and analogs thereof, modulators of nuclear hormone receptor function” (Bristol-Myers Squibb Company, priority 2000, dated 2010)
